Test results as given in patent US12721816B2, “Polymer-encapsulated drug particles” (Tonic Medical, Inc., priority 2020, dated 2026).
Values belong to the compound of their own block, whether it stands above or below them.

Legend:
[1] = target: albumin (Homo sapiens, UniProt P02768); conditions: cited from earlier work
[2] = urethral stricture patients; 1 hour, 3 hours, 5 hours, 10 hours, 24 hours, and 5 days
Description: Clinical subjects were evaluated at 14, 30, 90, 180, 365 days, and 2 years after the index procedure. Evaluations included analysis of stricture free rate, uroflowmetry including Qmax, and PVR.

[3] = BSA added; cited from earlier work
[4] = stability under ethylene oxide sterilization, heating, and aging with paclitaxel; conditions: formulated with paclitaxel

Sequence of albumin (P02768 25-609): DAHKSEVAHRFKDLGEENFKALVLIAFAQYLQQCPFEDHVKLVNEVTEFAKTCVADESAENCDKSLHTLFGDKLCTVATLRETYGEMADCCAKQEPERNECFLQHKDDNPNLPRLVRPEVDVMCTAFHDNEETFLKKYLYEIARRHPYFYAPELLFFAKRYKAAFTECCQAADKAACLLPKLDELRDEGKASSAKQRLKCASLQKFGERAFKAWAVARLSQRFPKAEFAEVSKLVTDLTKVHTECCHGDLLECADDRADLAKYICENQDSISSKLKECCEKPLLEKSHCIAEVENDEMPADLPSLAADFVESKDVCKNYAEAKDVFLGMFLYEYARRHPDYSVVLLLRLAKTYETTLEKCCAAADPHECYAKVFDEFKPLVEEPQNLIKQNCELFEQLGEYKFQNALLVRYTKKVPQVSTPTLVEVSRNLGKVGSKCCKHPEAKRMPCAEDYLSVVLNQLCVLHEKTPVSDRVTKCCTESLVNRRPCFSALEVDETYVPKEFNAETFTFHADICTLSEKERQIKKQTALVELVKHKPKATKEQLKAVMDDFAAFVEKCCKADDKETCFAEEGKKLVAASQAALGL

Structure (SMILES): CO[C@H]1C[C@@H]2CC[C@@H](C)[C@@](O)(O2)C(=O)C(=O)N2CCCC[C@H]2C(=O)O[C@H]([C@H](C)C[C@@H]2CC[C@@H](O)[C@H](OC)C2)CC(=O)[C@H](C)/C=C(\C)[C@@H](O)[C@@H](OC)C(=O)[C@H](C)C[C@H](C)/C=C/C=C/C=C/1C [sirolimus]
share of protein binding to albumin ([1]; bound primarily to albumin): 97%
protein bound [1]: 92%

Human plasma paclitaxel concentration on average [2]: below the level of quantification
Structure (SMILES): CC(=O)O[C@H]1C(=O)[C@@]2(C)[C@H]([C@H](OC(=O)c3ccccc3)[C@]3(O)C[C@H](OC(=O)[C@H](O)[C@@H](NC(=O)c4ccccc4)c4ccccc4)C(C)=C1C3(C)C)[C@]1(OC(C)=O)CO[C@@H]1C[C@@H]2O [paclitaxel]
solubility increase in PBS with the addition of BSA [3]: over 20 fold

Structure (SMILES): O=C(O)c1ccccc1 [benzoic acid]
stability under ethylene oxide sterilization, heating, and aging process [4]: not stable
